Laboratory results taken from the NIST ThermoML archive (doi:10.1021/je501041r).
± gives the expanded uncertainty stated by the source.

Tests used:
[1] = 101 kPa, Liquid; for viscosity: Capillary tube (Ostwald / Ubbelohde) method; for mass density: Vibrating tube method
[2] = xn = mol fraction of the nth substance listed; settings: 101 kPa, Liquid; for viscosity: Capillary tube (Ostwald / Ubbelohde) method; for mass density: Vibrating tube method

SMILES	viscosity ([1]; 298.15 K) [mPa·s]	mass density ([1]; 298.15 K) [kg/m3]	viscosity ([1]; 303.15 K) [mPa·s]	mass density ([1]; 303.15 K) [kg/m3]	viscosity ([1]; 308.15 K) [mPa·s]	mass density ([1]; 308.15 K) [kg/m3]	viscosity ([1]; 313.15 K) [mPa·s]	mass density ([1]; 313.15 K) [kg/m3]	viscosity ([1]; 318.15 K) [mPa·s]	mass density ([1]; 318.15 K) [kg/m3]	viscosity ([1]; 323.15 K) [mPa·s]	mass density ([1]; 323.15 K) [kg/m3]	viscosity ([2]; 298.15 K, x1 = 1) [mPa·s]	mass density ([2]; 298.15 K, x1 = 1) [kg/m3]	viscosity ([2]; 303.15 K, x1 = 1) [mPa·s]	mass density ([2]; 303.15 K, x1 = 1) [kg/m3]	viscosity ([2]; 308.15 K, x1 = 1) [mPa·s]	mass density ([2]; 308.15 K, x1 = 1) [kg/m3]	viscosity ([2]; 313.15 K, x1 = 1) [mPa·s]	mass density ([2]; 313.15 K, x1 = 1) [kg/m3]	also measured
CC(C)CC(C)(C)C [2,2,4-trimethylpentane]	0.478 ± 0.006	687.82 ± 2	0.453 ± 0.005	683.68 ± 2	0.429 ± 0.005	679.52 ± 2	0.408 ± 0.005	675.32 ± 2	0.388 ± 0.005	671.1 ± 2	0.369 ± 0.005	666.85 ± 2	–	–	–	–	–	–	–	–	–
CC(C)CC(C)(C)C [2,2,4-trimethylpentane] + CCCCCCCO	–	–	–	–	–	–	–	–	–	–	–	–	0.478 ± 0.006	687.82 ± 2	0.453 ± 0.005	683.68 ± 2	0.429 ± 0.005	679.52 ± 2	0.408 ± 0.005	675.32 ± 2	viscosity ([2]; 318.15 K, x1 = 1): 0.388 ± 0.005 mPa·s; mass density ([2]; 318.15 K, x1 = 1): 671.1 ± 2 kg/m3; viscosity ([2]; 323.15 K, x1 = 1): 0.369 ± 0.005 mPa·s; mass density ([2]; 323.15 K, x1 = 1): 666.85 ± 2 kg/m3
CC(C)CC(C)(C)C [2,2,4-trimethylpentane] + CCCCCCO	–	–	–	–	–	–	–	–	–	–	–	–	0.478 ± 0.006	687.82 ± 2	0.453 ± 0.005	683.68 ± 2	0.429 ± 0.005	679.52 ± 2	0.408 ± 0.005	675.32 ± 2	viscosity ([2]; 318.15 K, x1 = 1): 0.388 ± 0.005 mPa·s; mass density ([2]; 318.15 K, x1 = 1): 671.1 ± 2 kg/m3; viscosity ([2]; 323.15 K, x1 = 1): 0.369 ± 0.005 mPa·s; mass density ([2]; 323.15 K, x1 = 1): 666.85 ± 2 kg/m3
CC(C)CC(C)(C)C [2,2,4-trimethylpentane] + CCCCCO	–	–	–	–	–	–	–	–	–	–	–	–	0.478 ± 0.006	687.82 ± 2	0.453 ± 0.005	683.68 ± 2	0.429 ± 0.005	679.52 ± 2	0.408 ± 0.005	675.32 ± 2	viscosity ([2]; 318.15 K, x1 = 1): 0.388 ± 0.005 mPa·s; mass density ([2]; 318.15 K, x1 = 1): 671.1 ± 2 kg/m3; viscosity ([2]; 323.15 K, x1 = 1): 0.369 ± 0.005 mPa·s; mass density ([2]; 323.15 K, x1 = 1): 666.85 ± 2 kg/m3
CCCCCCCO [heptan-1-ol]	6.004 ± 0.073	818.82 ± 2	5.079 ± 0.062	815.3 ± 2	4.374 ± 0.054	811.75 ± 2	3.8 ± 0.047	808.17 ± 2	3.224 ± 0.04	804.57 ± 2	2.851 ± 0.035	800.93 ± 2	–	–	–	–	–	–	–	–	–
CCCCCCO [hexan-1-ol]	4.605 ± 0.056	815.3 ± 2	3.944 ± 0.048	811.71 ± 2	3.414 ± 0.042	808.09 ± 2	2.96 ± 0.036	804.43 ± 2	2.581 ± 0.032	800.75 ± 2	2.251 ± 0.028	797.02 ± 2	–	–	–	–	–	–	–	–	–
CCCCCO [pentan-1-ol]	3.458 ± 0.042	810.59 ± 2	3.007 ± 0.037	807.89 ± 2	2.625 ± 0.032	804.16 ± 2	2.317 ± 0.029	800.4 ± 2	2.029 ± 0.025	796.59 ± 2	1.795 ± 0.022	792.75 ± 2	–	–	–	–	–	–	–	–	–
CCCO [propan-1-ol]	1.955 ± 0.023	800.03 ± 2	1.737 ± 0.02	796.01 ± 2	1.548 ± 0.018	791.92 ± 2	1.384 ± 0.016	787.79 ± 2	1.241 ± 0.015	783.65 ± 2	1.117 ± 0.013	779.43 ± 2	–	–	–	–	–	–	–	–	–
CCCO [propan-1-ol] + CC(C)CC(C)(C)C	–	–	–	–	–	–	–	–	–	–	–	–	–	–	–	–	–	–	–	–	viscosity ([2]; 298.15 K, x2 = 0): 1.955 ± 0.023 mPa·s; mass density ([2]; 298.15 K, x2 = 0): 800.03 ± 2 kg/m3; viscosity ([2]; 303.15 K, x2 = 0): 1.737 ± 0.02 mPa·s; mass density ([2]; 303.15 K, x2 = 0): 796.01 ± 2 kg/m3; viscosity ([2]; 308.15 K, x2 = 0): 1.548 ± 0.018 mPa·s; mass density ([2]; 308.15 K, x2 = 0): 791.92 ± 2 kg/m3; viscosity ([2]; 313.15 K, x2 = 0): 1.384 ± 0.016 mPa·s; mass density ([2]; 313.15 K, x2 = 0): 787.79 ± 2 kg/m3; viscosity ([2]; 318.15 K, x2 = 0): 1.241 ± 0.015 mPa·s; mass density ([2]; 318.15 K, x2 = 0): 783.65 ± 2 kg/m3; viscosity ([2]; 323.15 K, x2 = 0): 1.117 ± 0.013 mPa·s; mass density ([2]; 323.15 K, x2 = 0): 779.43 ± 2 kg/m3
